Experiments:
Assay type in all cases: cell-based
uninfected MT2 cells = assay: Compound cytotoxicity, XTT-based colorimetric assay
Method in brief: (§1)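 CC50 from uninfected MT2 cells run under the antiviral-assay protocol without virus. Viability read on day 4 by XTT colorimetric assay.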

[1] = test system: recombinant NL4-3 virus (nef section replaced with Renilla luciferase gene) in MT-2 cells; assay: HIV cell culture assay (antiviral activity, luciferase readout); details: MT-2 cells infected for 4-5 days with recombinant NL4-3 luciferase virus
Method in brief: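 NL4-3 reporter virus carrying Renilla luciferase in place of part of nef, produced in 293T cells, was used to infect MT-2 cells for 4-5 days with serial compound dilutions. Luciferase activity was read with a live-cell substrate; EC50 derived from the median effect equation.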

[2] = Compound cytotoxicity, XTT-based colorimetric assay; details: human, uninfected MT2 cells
Method in brief: as §1

Work on `COc1cccc2nc([C@H](Cc3cc(F)cc(F)c3)NC(=O)Cn3nc(C(F)F)c4c3C(F)(F)[C@@H]3C[C@H]43)n(-c3ccc(Cl)c4c(NS(C)(=O)=O)nn(C)c34)c(=O)c12` (mixture of isomers) [Example 170, N—((S)-1-(3-(4-chloro-1-methyl-3-(methylsulfonamido)-1H-indazol-7-yl)-5-methoxy-4-oxo-3,4-dihydroquinazolin-2-yl)-2-(3,5-difluorophenyl)ethyl)-2-((3bS,4aR)-3-(difluoromethyl)-5,5-difluoro-3b,4,4a,5-tetrahydro-1H-cyclopropa[3,4]cyclopenta[1,2-c]pyrazol-1-yl)acetamide] yielded a CC50 (uninfected MT2 cells; Table 1a, day 4, XTT) greater than 1000 nM and an EC50 ([1]; Table 1a) of 0.052 nM.

`COc1cc(F)c2c(=O)n(-c3ccc(Cl)c4c(NS(C)(=O)=O)nn(C)c34)c([C@H](Cc3cc(F)cc(F)c3)NC(=O)Cn3nc(C(F)F)c4c3C(F)(F)[C@@H]3C[C@H]43)nc2c1` (single isomer, unassigned) [Example 187] showed a CC50 (uninfected MT2 cells; Table 1a, day 4, XTT) greater than 1000 nM and an EC50 ([1]; Table 1a) of 178 nM.

Compound `O=C(Cn1nc(C(F)F)c2c1C(F)(F)[C@@H]1C[C@H]21)NC(Cc1cc(F)cc(F)c1)c1ncc2nc[nH]c2c1-c1ccc2scnc2c1` (single isomer, unassigned) [Example 7.2] has a CC50 (uninfected MT2 cells; Table 1, day 4, XTT) of 17500 nM and an EC50 ([1]; Table 1) of 9 nM.

With `Cc1nc2nc(C(Cc3cc(F)cc(F)c3)NC(=O)Cn3nc(C(F)F)c4c3C(F)(F)[C@@H]3C[C@H]43)c(-c3ccc(Cl)c4c(NS(C)(=O)=O)nn(C)c34)cc2s1` (single isomer, unassigned) [Example 2.2] the CC50 (uninfected MT2 cells; Table 1, day 4, XTT) was greater than 10000 nM and the EC50 ([1]; Table 1) was 1150 nM.

`Cn1nc(NS(C)(=O)=O)c2c(Cl)ccc(-n3c([C@H](Cc4cc(F)cc(F)c4)NC(=O)Cn4nc(C(F)F)c5c4C(F)(F)[C@@H]4C[C@H]54)nc4ncccc4c3=O)c21` (single isomer, unassigned) [Example 10.40] gave a CC50 (uninfected MT2 cells; Table 1, day 4, XTT) greater than 10000 nM and an EC50 ([1]; Table 1) of 0.0189 nM.

`Cn1nc(NS(C)(=O)=O)c2c(Cl)ccc(-c3cc4[nH]ccc4nc3C(Cc3cc(F)cc(F)c3)NC(=O)Cn3nc(C(F)F)c4c3C(F)(F)[C@@H]3C[C@H]43)c21` (single isomer, unassigned) [Example 5.2] gave a CC50 (uninfected MT2 cells; Table 1, day 4, XTT) greater than 10000 nM and an EC50 ([1]; Table 1) of 400 nM.

Work on `COc1c(F)cc2c(=O)n(-c3ccc(Cl)c4c(NS(C)(=O)=O)nn(C)c34)c([C@H](Cc3cc(F)cc(F)c3)NC(=O)Cn3ccc(C4CC4)n3)nc2c1F` (single isomer, unassigned) [Example 116] yielded a CC50 (uninfected MT2 cells; Table 1a, day 4, XTT) greater than 1000 nM and an EC50 ([1]; Table 1a) of 0.231 nM.

Work on `CS(=O)(=O)Nc1nn(CC(F)(F)F)c2c(-c3cc4[nH]ncc4nc3[C@H](Cc3cc(F)cc(F)c3)NC(=O)Cn3nc(C(F)F)c4c3C(F)(F)[C@@H]3C[C@H]43)ccc(Cl)c12` (single isomer, unassigned) [Example 95] yielded a CC50 (uninfected MT2 cells; Table 1a, day 4, XTT) greater than 1000 nM and an EC50 ([1]; Table 1a) of 0.094 nM.

`Cn1nc(NS(C)(=O)=O)c2c(Cl)ccc(-c3cc4scnc4nc3C(Cc3cc(F)cc(F)c3)NC(=O)Cn3nc(C(F)F)c4c3C(F)(F)[C@@H]3C[C@H]43)c21` (single isomer, unassigned) [Example 1.5] gave a CC50 (uninfected MT2 cells; Table 1, day 4, XTT) greater than 10000 nM and an EC50 ([1]; Table 1) of 1150 nM.

Compound `Cc1cc(F)c2c(=O)n(-c3ccc(Cl)c4c(NS(C)(=O)=O)nn(C)c34)c(C(Cc3cc(F)cc(F)c3)NC(=O)Cn3nc(C(F)F)c4c3C(F)(F)[C@@H]3C[C@H]43)nc2c1` (mixture of isomers) [Example 171, N—((S)-1-(3-(4-chloro-1-methyl-3-(methylsulfonamido)-1H-indazol-7-yl)-5-fluoro-7-methyl-4-oxo-3,4-dihydroquinazolin-2-yl)-2-(3,5-difluorophenyl)ethyl)-2-((3bS,4aR)-3-(difluoromethyl)-5,5-difluoro-3b,4,4a,5-tetrahydro-1H-cyclopropa[3,4]cyclopenta[1,2-c]pyrazol-1-yl)acetamide] has a CC50 at 4 days ([2]; Table 1a, day 4, XTT) greater than 1000 nM and an EC50 ([1]; Renilla, NL43, Table 1a) of 3.96 nM.

In the case of `Cc1cc(C)c2c(=O)n(-c3ccc(Cl)c4c(NS(C)(=O)=O)nn(C)c34)c(C(Cc3cc(F)cc(F)c3)NC(=O)Cn3nc(C(F)F)c4c3C(F)(F)[C@@H]3C[C@H]43)nc2n1` (mixture of isomers) [Example 42.1], the CC50 at 4 days ([2]; Table 1a, day 4, XTT) is reported as greater than 10000 nM and the EC50 ([1]; Renilla, NL43, Table 1a) is reported as 12 nM.

Work on `O=C(Cn1nc(C(F)F)c2c1C(F)(F)[C@@H]1C[C@H]21)NC(Cc1cc(F)cc(F)c1)c1ncc2nc[nH]c2c1-c1ccc2scnc2c1` (single isomer, unassigned) [Example 7.1] yielded a CC50 at 4 days ([2]; Table 1, day 4, XTT) of 16200 nM and an EC50 ([1]; Table 1) of 140 nM.

With `CN(c1nn(C)c2c(-c3cc4c(ccn4C)nc3[C@H](Cc3cc(F)cc(F)c3)NC(=O)Cn3nc(C(F)F)c4c3C(F)(F)[C@@H]3C[C@H]43)ccc(Cl)c12)S(C)(=O)=O` (single isomer, unassigned) [Example 64] the CC50 at 4 days ([2]; Table 1a, day 4, XTT) was greater than 10000 nM and the EC50 ([1]; Renilla, NL43, Table 1a) was 4 nM.

Work on `N#Cc1cnc2nc([C@H](Cc3cc(F)cc(F)c3)NC(=O)Cn3nc(C(F)F)c4c3C(F)(F)[C@@H]3C[C@H]43)n(-c3ccc(C4CC4)cc3)c(=O)c2c1` [Example 39, N-[(1S)-1-[6-cyano-3-(4-cyclopropylphenyl)-4-oxo-3H,4H-pyrido[2,3-d]pyrimidin-2-yl]-2-(3,5-difluorophenyl)ethyl]-2-[(2S,4R)-9-(difluoromethyl)-5,5-difluoro-7,8-diazatricyclo[4.3.0.0^2,4]nona-1(6),8-dien-7-yl]acetamide] yielded a CC50 at 4 days ([2]; Table 1a, day 4, XTT) of 2000 nM and an EC50 ([1]; Renilla, NL43, Table 1a) of 3.76 nM.

`Cn1nc(NS(C)(=O)=O)c2c(Cl)ccc(-n3c(C(Cc4cc(F)cc(F)c4)NC(=O)Cn4nc(C(F)F)c5c4C(F)(F)C4CC54)nc4nc(Cl)ccc4c3=O)c21` (stereo in doubt) [Example 12.1, N—((S)-1-(7-chloro-3-(4-chloro-1-methyl-3-(methylsulfonamido)-1H-indazol-7-yl)-4-oxo-3,4-dihydropyrido[2,3-d]pyrimidin-2-yl)-2-(3,5-difluorophenyl)ethyl)-2-((3bS,4aR)-3-(difluoromethyl)-5,5-difluoro-3b,4,4a,5-tetrahydro-1H-cyclopropa[3,4]cyclopenta[1,2-c]pyrazol-1-yl)acetamide] gave a CC50 at 4 days ([2]; Table 1, day 4, XTT) greater than 10000 nM and an EC50 ([1]; Renilla, NL43, Table 1) of 4310 nM.

Compound `COc1c(F)ccc2c(=O)n(-c3ccc(Cl)c4c(NS(C)(=O)=O)nn(C)c34)c([C@H](Cc3cc(F)cc(F)c3)NC(=O)Cn3nc(C(F)F)c4c3C(F)(F)[C@@H]3C[C@H]43)nc12` (single isomer, unassigned) [Example 109] has a CC50 at 4 days ([2]; Table 1a, day 4, XTT) greater than 1000 nM and an EC50 ([1]; Table 1a) of 118 nM.

`O=C(Cn1nc(C(F)F)c2c1C(F)(F)[C@@H]1C[C@H]21)N[C@@H](Cc1cc(F)cc(F)c1)c1nc2cn[nH]c2cc1-c1ccc2c(c1)C(=O)NC2` [Example 10.14, 2-((3bS,4aR)-3-(difluoromethyl)-5,5-difluoro-3b,4,4a,5-tetrahydro-1H-cyclopropa[3,4]cyclopenta[1,2-c]pyrazol-1-yl)-N—((S)-2-(3,5-difluorophenyl)-1-(6-(3-oxoisoindolin-5-yl)-1H-pyrazolo[4,3-b]pyridin-5-yl)ethyl)acetamide] showed a CC50 at 4 days ([2]; Table 1, day 4, XTT) greater than 10000 nM and an EC50 ([1]; Renilla, NL43, Table 1) of 2.5 nM.

Work on `CC(C)(c1ccc2c(=O)n(-c3ccc(Cl)c4c(NS(C)(=O)=O)nn(CC(F)F)c34)c([C@H](Cc3cc(F)cc(F)c3)NC(=O)Cn3nc(C(F)F)c4c3C(F)(F)[C@@H]3C[C@H]43)nc2c1)S(C)(=O)=O` [Example 213, N—((S)-1-(3-(4-chloro-1-(2,2-difluoroethyl)-3-(methylsulfonamido)-1H-indazol-7-yl)-7-(2-(methylsulfonyl)propan-2-yl)-4-oxo-3,4-dihydroquinazolin-2-yl)-2-(3,5-difluorophenyl)ethyl)-2-((3bS,4aR)-3-(difluoromethyl)-5,5-difluoro-3b,4,4a,5-tetrahydro-1H-cyclopropa[3,4]cyclopenta[1,2-c]pyrazol-1-yl)acetamide] yielded a CC50 at 4 days ([2]; Table 1a, day 4, XTT) greater than 1000 nM and an EC50 ([1]; Renilla, NL43, Table 1a) of 0.28 nM.

`CS(=O)(=O)Nc1n[nH]c2c(-c3cc4[nH]ccc4nc3[C@H](Cc3cc(F)cc(F)c3)NC(=O)Cn3nc(C(F)F)c4c3C(F)(F)[C@@H]3C[C@H]43)ccc(Cl)c12` [Example 90, N—((S)-1-(6-(4-chloro-3-(methylsulfonamido)-1H-indazol-7-yl)-1H-pyrrolo[3,2-b]pyridin-5-yl)-2-(3,5-difluorophenyl)ethyl)-2-((3bS,4aR)-3-(difluoromethyl)-5,5-difluoro-3b,4,4a,5-tetrahydro-1H-cyclopropa[3,4]cyclopenta[1,2-c]pyrazol-1-yl)acetamide] gave a CC50 at 4 days ([2]; Table 1a, day 4, XTT) greater than 10000 nM and an EC50 ([1]; Renilla, NL43, Table 1a) of 1.48 nM.

Compound `CS(=O)(=O)Nc1nn(CC(F)F)c2c(-c3nc4ccccc4nc3[C@H](Cc3cc(F)cc(F)c3)NC(=O)Cn3nc(C(F)F)c4c3C(F)(F)[C@@H]3C[C@H]43)ccc(Cl)c12` [Example 96, N—((S)-1-(3-(4-chloro-1-(2,2-difluoroethyl)-3-(methylsulfonamido)-1H-indazol-7-yl)quinoxalin-2-yl)-2-(3,5-difluorophenyl)ethyl)-2-((3bS,4aR)-3-(difluoromethyl)-5,5-difluoro-3b,4,4a,5-tetrahydro-1H-cyclopropa[3,4]cyclopenta[1,2-c]pyrazol-1-yl)acetamide] has a CC50 at 4 days ([2]; Table 1a, day 4, XTT) greater than 1000 nM and an EC50 ([1]; Renilla, NL43, Table 1a) of 0.26 nM.

For `O=C(Cn1nc(C(F)F)c2c1C(F)(F)[C@@H]1C[C@H]21)N[C@@H](Cc1cc(F)cc(F)c1)c1nc2ncccc2c(=O)n1-c1ccc2c(c1)C(=O)NC2` [Example 31, 2-[(2S,4R)-9-(difluoromethyl)-5,5-difluoro-7,8-diazatricyclo[4.3.0.0^2,4]nona-1(6),8-dien-7-yl]-N-[(1S)-2-(3,5-difluorophenyl)-1-[4-oxo-3-(3-oxo-2,3-dihydro-1H-isoindol-5-yl)-3H,4H-pyrido[2,3-d]pyrimidin-2-yl]ethyl]acetamide], the CC50 at 4 days ([2]; Table 1a, day 4, XTT) was greater than 10000 nM and the EC50 ([1]; Renilla, NL43, Table 1a) was 0.99 nM.

`Cn1nc(NS(C)(=O)=O)c2c(Cl)ccc(-n3c([C@H](Cc4cc(F)cc(F)c4)NC(=O)Cn4nc(C(F)F)c5c4C(F)(F)[C@@H]4C[C@H]54)nc4cc(F)cc(F)c4c3=O)c21` (single isomer, unassigned) [Example 130] gave a CC50 at 4 days ([2]; Table 1a, day 4, XTT) greater than 1000 nM and an EC50 ([1]; Renilla, NL43, Table 1a) of 0.15 nM.

Source: patent US10954252B1, “Inhibitors of human immunodeficiency virus replication” (ViiV HEALTHCARE UK (NO.5) LIMITED, priority 2017, dated 2021)
